In test [1] the target is N-terminal region of IP3R1 (amino acids 1-604) (Mus musculus, UniProt P11881). The note with it: cited from earlier work.
Test [2] has as its target T1, IRBIT bound to GST-EL (mouse IP3R1 amino acids 1-2217) (Mus musculus, UniProt P11881, N1264K).
T1 construct: construct a GST-IP3R1 (1-2217) vector (termed GST-EL); made in house; host or cells: Sf9 cells (baculovirus) for GST-EL; IRBIT from mouse cerebellum tissue extract
The test is described as follows: Dissociation of IRBIT from GST-EL by eluants (pulldown, immunoblot quantification). It is filed as binding. On the procedure:
Bound proteins were pulled down with glutathione-Sepharose, and eluted with glutathione (Glu) (a) or 0.1 to 10 μM IP3 (a), IP2 (b), IP4 (c), IP6 (d), or ATP (e). IRBIT in the extract was analyzed with anti-IRBIT antibody and Alexa 680-conjugated secondary antibody (“a” (lower panel) and panels “b” to “e”). GST-EL in the glutathione and 0.1 to 10 μM IP3 eluate was analyzed with anti-GST antibody (a, upper panel). […] The relative intensity was plotted against the concentration of an eluant. Results are shown as the mean±standard deviation from at least three independent experiments.
For dissociation experiments, IRBIT in the diluted high salt extract was pulled down with GST-EL for precipitation and washed as described above. To resins, 100 μl of a wash buffer containing IP3, inositol 4,5-bisphosphate (IP2) (Dojindo), inositol 1,3,4,5-tetrakisphosphate (IP4) (Calbiochem), inositol 1,2,3,4,5,6-hexakisphosphate (IP6) (Calbiochem) or ATP (Amersham Pharmacia Biotech) (0.1, 0.3, 1, 3 or 10 μM) were added. After incubation on ice for 10 minutes, samples were centrifuged at 10,000 rpm for 1 minute, and the supernatant was subjected to immunoblot analysis with anti-IRBIT antibody or goat anti-GST antibody (Amersham Pharmacia Biotech). For quantification, Alexa 680-conjugated goat anti-rabbit IgG (Molecular Probes) was used as a secondary antibody. The fluorescence intensity of the immunoreactive bands of IRBIT was measured using the Odyssey infrared imaging system (Aloka). Quantitative data (the mean±SD from at least three independent experiments) is expressed as a percentage of the amount of IRBIT in 10 μM IP3 eluate.
IRBIT in the high salt extract from the mouse cerebellar crude microsome was trapped with GST-EL. Then elution was attempted with 0.1 to 10 μM IP3, and other inositolpolyphosphates, IP2, IP4, IP6 or ATP. […] It was confirmed that GST-EL was not detected (FIG. 8Aa, upper panel), even with longer exposure. […]
In general terms: In western blotting, separated proteins are transferred to a membrane and probed.

Test [3] concerns the target T2, GST-EL (mouse IP3R1 amino acids 1-2217) (Mus musculus, UniProt P11881, N1264K).
T2 construct: construct a GST-IP3R1 (1-2217) vector (termed GST-EL); made in house; host or cells: Sf9 cells (baculovirus)
The test is described as follows: GST pulldown with GST-EL. The test is classed as binding. The note with it: GFP fusion proteins in Cos-7 cell lysates. On the procedure:
Mouse cerebellar cytosolic fraction was diluted 2-fold with 10 mM Hepes (pH 7.4), 200 mM NaCl, 2 mM EDTA, 1 mM 2-ME and 0.02% Triton X-100. The high salt extract was diluted 5-fold with 10 mM Hepes (pH 7.4), 2 mM EDTA, 1 mM 2-ME and 0.01% Triton X-100. The diluted fractions (the final NaCl concentration of both fractions was 100 mM) were incubated with 20 μg of GST-EL or GST for 2 hours at 4° C. After adding 10 μl of glutathione-Sepharose and another 2 hours of incubation, the resins were washed 5 times with a wash buffer (10 mM Hepes (pH 7.4), 100 mM NaCl, 2 mM EDTA, 1 mM 2-ME, and 0.01% Triton X-100), and bound proteins were eluted with 20 mM glutathione.
The eluted proteins were analyzed by Western blotting with anti-IRBIT antibody. For dephosphorylation, the diluted high salt extract was incubated in the presence of or the absence of Escherichia coli alkaline phosphatase (Toyobo) with 2 mM MgCl2 for 30 minutes at 37° C. 5 mM EDTA was added, and then the resultant was subjected to pulldown assay as described above.
For the determination of the IP3R1-interacting region of IRBIT, Cos-7 cells expressing GFP-tagged full-length IRBIT or its truncated mutants were lysed in a lysis buffer (10 mM Hepes (pH7.4), 100 mM NaCl, 2 mM EDTA, 1 mM 2-ME, 0.5% Nonidet P-40, and protease inhibitor) for 30 minutes at 4° C., followed by centrifugation (100,000×g, 30 minutes). The supernatants were subjected to pulldown assay with GST-EL or GST as described above, and bound proteins were subjected to immunoblot analysis with anti-GFP antibody (Medical & Biological Laboratories).

T1 sequence (P11881 1-2217 N1264K): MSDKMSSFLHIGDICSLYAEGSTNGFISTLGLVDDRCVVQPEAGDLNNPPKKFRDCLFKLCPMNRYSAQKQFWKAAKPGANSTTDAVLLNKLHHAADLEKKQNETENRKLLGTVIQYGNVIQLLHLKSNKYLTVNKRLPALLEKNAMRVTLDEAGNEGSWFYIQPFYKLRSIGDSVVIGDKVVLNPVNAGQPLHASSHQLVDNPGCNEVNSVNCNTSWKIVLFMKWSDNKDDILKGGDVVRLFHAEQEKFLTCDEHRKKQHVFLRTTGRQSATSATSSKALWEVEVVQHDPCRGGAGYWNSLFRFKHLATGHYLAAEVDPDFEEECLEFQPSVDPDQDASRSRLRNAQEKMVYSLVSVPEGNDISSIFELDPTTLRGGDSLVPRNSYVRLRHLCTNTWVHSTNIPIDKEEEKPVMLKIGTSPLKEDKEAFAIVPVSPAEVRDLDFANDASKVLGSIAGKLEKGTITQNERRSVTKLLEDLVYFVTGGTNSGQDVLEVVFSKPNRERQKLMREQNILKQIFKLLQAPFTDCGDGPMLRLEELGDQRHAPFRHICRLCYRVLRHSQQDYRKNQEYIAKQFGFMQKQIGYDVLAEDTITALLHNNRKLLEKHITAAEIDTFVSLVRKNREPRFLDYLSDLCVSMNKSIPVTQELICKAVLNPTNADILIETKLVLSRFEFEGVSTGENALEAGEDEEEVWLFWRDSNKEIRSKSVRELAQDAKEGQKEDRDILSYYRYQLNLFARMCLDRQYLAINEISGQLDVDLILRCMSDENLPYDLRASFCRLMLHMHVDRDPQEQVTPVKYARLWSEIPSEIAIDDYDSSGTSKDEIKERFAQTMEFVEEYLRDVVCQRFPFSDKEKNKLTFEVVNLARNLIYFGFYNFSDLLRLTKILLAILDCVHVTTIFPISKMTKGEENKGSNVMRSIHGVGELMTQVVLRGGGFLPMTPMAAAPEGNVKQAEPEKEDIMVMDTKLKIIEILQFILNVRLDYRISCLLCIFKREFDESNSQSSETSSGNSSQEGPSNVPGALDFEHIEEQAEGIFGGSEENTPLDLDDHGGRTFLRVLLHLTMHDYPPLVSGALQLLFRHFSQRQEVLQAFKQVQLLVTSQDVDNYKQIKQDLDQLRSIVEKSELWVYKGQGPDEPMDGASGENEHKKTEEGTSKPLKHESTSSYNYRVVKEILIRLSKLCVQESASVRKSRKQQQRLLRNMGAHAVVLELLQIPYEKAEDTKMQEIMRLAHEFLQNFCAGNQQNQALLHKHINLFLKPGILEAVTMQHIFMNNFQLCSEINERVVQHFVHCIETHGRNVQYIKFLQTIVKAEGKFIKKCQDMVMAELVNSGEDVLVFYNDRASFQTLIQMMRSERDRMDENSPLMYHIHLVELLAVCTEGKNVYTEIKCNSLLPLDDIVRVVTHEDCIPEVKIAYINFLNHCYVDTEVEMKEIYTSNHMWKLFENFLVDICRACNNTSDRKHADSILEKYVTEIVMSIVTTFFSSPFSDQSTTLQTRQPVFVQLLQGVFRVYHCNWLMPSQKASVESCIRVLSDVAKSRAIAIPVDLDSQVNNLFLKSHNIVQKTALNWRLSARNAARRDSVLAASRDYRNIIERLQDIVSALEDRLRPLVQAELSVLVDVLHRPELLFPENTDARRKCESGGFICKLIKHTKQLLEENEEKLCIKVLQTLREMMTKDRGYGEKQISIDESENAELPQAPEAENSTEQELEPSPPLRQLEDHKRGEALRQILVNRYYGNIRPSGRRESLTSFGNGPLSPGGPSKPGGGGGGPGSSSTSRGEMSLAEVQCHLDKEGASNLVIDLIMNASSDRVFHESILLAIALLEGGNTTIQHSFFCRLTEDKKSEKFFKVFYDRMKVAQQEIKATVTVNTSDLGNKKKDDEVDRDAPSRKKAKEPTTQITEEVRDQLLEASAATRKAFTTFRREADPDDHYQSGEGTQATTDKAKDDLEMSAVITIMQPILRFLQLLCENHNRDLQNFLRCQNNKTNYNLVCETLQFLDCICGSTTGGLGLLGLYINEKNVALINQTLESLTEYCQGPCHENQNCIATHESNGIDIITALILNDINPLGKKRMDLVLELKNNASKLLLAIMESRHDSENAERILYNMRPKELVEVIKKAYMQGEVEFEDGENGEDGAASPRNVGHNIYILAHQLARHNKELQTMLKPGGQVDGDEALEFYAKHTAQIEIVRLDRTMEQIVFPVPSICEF
T2 sequence (P11881 1-2217 N1264K): as above
N-terminal region of IP3R1 (amino acids 1-604), sequence (P11881 1-604): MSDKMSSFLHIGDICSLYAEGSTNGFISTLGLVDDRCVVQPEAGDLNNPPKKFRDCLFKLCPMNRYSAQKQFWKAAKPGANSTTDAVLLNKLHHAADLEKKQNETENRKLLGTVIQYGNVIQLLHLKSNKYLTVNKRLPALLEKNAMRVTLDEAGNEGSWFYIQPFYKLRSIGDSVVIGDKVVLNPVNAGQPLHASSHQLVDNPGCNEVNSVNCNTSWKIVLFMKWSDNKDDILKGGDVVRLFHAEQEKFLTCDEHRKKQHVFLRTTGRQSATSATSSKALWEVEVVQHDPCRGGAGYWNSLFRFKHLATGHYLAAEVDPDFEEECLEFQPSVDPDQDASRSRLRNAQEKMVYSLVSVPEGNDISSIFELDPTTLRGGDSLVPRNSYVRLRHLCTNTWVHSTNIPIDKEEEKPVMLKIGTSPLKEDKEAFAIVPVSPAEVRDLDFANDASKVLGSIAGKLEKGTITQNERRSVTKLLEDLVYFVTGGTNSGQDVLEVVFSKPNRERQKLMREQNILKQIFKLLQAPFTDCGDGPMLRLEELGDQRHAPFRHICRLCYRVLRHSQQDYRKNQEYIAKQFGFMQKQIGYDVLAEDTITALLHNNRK

`O=P(O)(O)O[C@@H]1[C@H](O)[C@H](O)[C@@H](OP(=O)(O)O)[C@H](OP(=O)(O)O)[C@H]1O` [IP3, inositol 1,4,5-trisphosphate]: the “affinity lower than the Kd value determined by a conventional assay” value in test [1] (pH 7.4 and 150 mM NaCl versus conventional assay) is reported as “approximately 7.5 fold”. Moreover, the Kd in test [1] (physiological conditions (pH 7.4 and 150 mM NaCl), read-out: Kd of IP3 binding) was 336 nM. Further, the EC50 in test [2] (pH 7.4 and 100 mM NaCl, IRBIT from mouse cerebellar high salt extract, read-out: EC50 (IP3 concentration required for half (50%)-maximal dissociation of IRBIT from GST-EL)) is ~500 nM. Further, in test [2] (versus IP2, IP4, IP6), the “dissociation efficiency relative to other inositol polyphosphates” value is recorded as “approximately 50 times”. As to “GFP-IRBIT (1-104): GFP-tagged deletion mutant of IRBIT, amino acids 1-104 (N-terminal region)”, the “interaction with GST-EL” value in test [3] is given as “much weaker”. Regarding “GFP-IRBIT (105-530): GFP-tagged deletion mutant of IRBIT, amino acids 105-530, lacking the N-terminal region”, the “interaction with GST-EL” value in test [3] was “did not interact with GST-EL”. With “GFP-IRBIT (1 to 277): GFP-tagged deletion mutant of IRBIT, amino acids 1-277”, the “interaction with GST-EL” value in test [3] is on record as “bound to GST-EL efficiently”. The same measure, in the same setting: for “GFP-IRBIT: GFP-tagged full-length IRBIT expressed in Cos-7 cells” the value was “bound to GST-EL efficiently”.

Regarding `Nc1ncnc2c1ncn2[C@@H]1O[C@H](COP(=O)(O)OP(=O)(O)OP(=O)(O)O)[C@@H](O)[C@H]1O` [ATP], in test [2] (10 μM eluant), the “dissociation of IRBIT from GST-EL” value is given as “did not dissociate”.

By Kd is commonly meant the constant that tells how readily two partners part at equilibrium.

Source of the values: patent US20050181450A1, “Novel inositol 1,4,5-trisphosphate (IP3) receptor-binding protein and an IP3 indicator” (priority 2002, published 2005).
